# Experimental data taken from PubChem BioAssay (NCI).
#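 Interpolation was linear, between the two tested concentrations surrounding the appropriate level; five concentrations were tested over 48 hours in 96-well plates. TGI: concentration producing complete growth inhibition.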
# Experiments:
# Experiment in all cases: NCI tumour cell line growth inhibition, 48 h
# NCI-H460 lung = system: NCI-H460 lung
# HCT-15 colon = system: HCT-15 colon
# OVCAR-3 ovarian = system: OVCAR-3 ovarian
# SNB-19 CNS = system: SNB-19 CNS
# MOLT-4 leukemia = system: MOLT-4 leukemia
# CAKI-1 renal = system: CAKI-1 renal
# SF-268 CNS = system: SF-268 CNS
# SF-539 CNS = system: SF-539 CNS
# UACC-62 melanoma = system: UACC-62 melanoma
# SF-295 CNS = system: SF-295 CNS
# SK-MEL-28 melanoma = system: SK-MEL-28 melanoma
# M14 melanoma = system: M14 melanoma
# OVCAR-5 ovarian = system: OVCAR-5 ovarian
# HCC-2998 colon = system: HCC-2998 colon
# MDA-MB-231 breast = system: MDA-MB-231 breast
# NCI-H226 lung = system: NCI-H226 lung
# SNB-75 CNS = system: SNB-75 CNS
# SW-620 colon = system: SW-620 colon
# A549 NSCLC = system: A549 NSCLC
# SK-OV-3 ovarian = system: SK-OV-3 ovarian
# NCI/ADR-RES ovarian = system: NCI/ADR-RES ovarian
# UACC-257 melanoma = system: UACC-257 melanoma
# A498 renal = system: A498 renal
# HOP-62 NSCLC = system: HOP-62 NSCLC
# MDA-MB-435 = system: MDA-MB-435
# BT-549 breast = system: BT-549 breast
# HL-60(TB) leukemia = system: HL-60(TB) leukemia
# TK-10 renal = system: TK-10 renal
# RXF 393 renal = system: RXF 393 renal
# NCI-H23 lung = system: NCI-H23 lung
# ACHN renal = system: ACHN renal
# PC-3 prostate = system: PC-3 prostate
# SN12C renal = system: SN12C renal
# KM12 colon = system: KM12 colon
# SK-MEL-2 melanoma = system: SK-MEL-2 melanoma
# EKVX NSCLC = system: EKVX NSCLC
# IGROV1 ovarian = system: IGROV1 ovarian
# HT29 colon = system: HT29 colon
# K-562 leukemia = system: K-562 leukemia
# 786-0 renal = system: 786-0 renal
# HS 578T breast = system: HS 578T breast
# MALME-3M melanoma = system: MALME-3M melanoma
# HCT-116 colon = system: HCT-116 colon
# LOX IMVI melanoma = system: LOX IMVI melanoma
# DU-145 prostate = system: DU-145 prostate
# CCRF-CEM leukemia = system: CCRF-CEM leukemia
# SK-MEL-5 melanoma = system: SK-MEL-5 melanoma
# OVCAR-8 ovarian = system: OVCAR-8 ovarian
# OVCAR-4 ovarian = system: OVCAR-4 ovarian
# HOP-92 NSCLC = system: HOP-92 NSCLC
# RPMI-8226 leukemia = system: RPMI-8226 leukemia
# SR leukemia = system: SR leukemia
# MCF7 breast = system: MCF7 breast
SMILES,TGI (NCI-H460 lung) [µM],TGI (OVCAR-3 ovarian) [µM],TGI (SNB-19 CNS) [µM],TGI (MOLT-4 leukemia) [µM],TGI (CAKI-1 renal) [µM],TGI (SF-295 CNS) [µM],TGI (SK-MEL-28 melanoma) [µM],TGI (M14 melanoma) [µM],TGI (OVCAR-5 ovarian) [µM],TGI (NCI-H226 lung) [µM],TGI (SW-620 colon) [µM],TGI (NCI/ADR-RES ovarian) [µM],TGI (UACC-257 melanoma) [µM],TGI (A498 renal) [µM],TGI (HOP-62 NSCLC) [µM],TGI (TK-10 renal) [µM],TGI (RXF 393 renal) [µM],TGI (NCI-H23 lung) [µM],TGI (ACHN renal) [µM],TGI (KM12 colon) [µM],further results
CN(C)CCCn1c(-c2cc(C(C)(C)C)c(O)c(C(C)(C)C)c2)csc1=Nc1ccccc1,6.58,3.04,4.52,0.547,52.4,3.26,4.73,3.84,4.19,3.59,> 100,3.45,3.39,6.94,3.34,5.45,4.01,3.73,9.14,3.6,TGI (HCT-15 colon): 9.05 µM; TGI (SF-268 CNS): 3.95 µM; TGI (SF-539 CNS): 3.38 µM; TGI (UACC-62 melanoma): 4.62 µM; TGI (HCC-2998 colon): 3.65 µM; TGI (MDA-MB-231 breast): 20.8 µM; TGI (SNB-75 CNS): 8.34 µM; TGI (A549 NSCLC): 3.46 µM; TGI (SK-OV-3 ovarian): 3.94 µM; TGI (MDA-MB-435): 5 µM; TGI (BT-549 breast): 7.8 µM; TGI (HL-60(TB) leukemia): 8.76 µM; TGI (PC-3 prostate): 3.58 µM; TGI (SN12C renal): 6.15 µM; TGI (SK-MEL-2 melanoma): 8.51 µM; TGI (EKVX NSCLC): 4.26 µM
COc1ccc(C[C@H]2COC(=O)[C@@H]2Cc2ccc(O)cc2)cc1OC,> 100,> 100,> 100,> 100,–,> 100,> 100,> 100,> 100,> 100,> 100,> 100,> 100,> 100,> 100,> 100,–,> 100,> 100,–,TGI (IGROV1 ovarian): > 100 µM; TGI (HT29 colon): > 100 µM; TGI (K-562 leukemia): > 100 µM; TGI (786-0 renal): > 100 µM; TGI (HS 578T breast): > 100 µM; TGI (MALME-3M melanoma): > 100 µM; TGI (HCT-116 colon): > 100 µM; TGI (LOX IMVI melanoma): > 100 µM; TGI (DU-145 prostate): > 100 µM; TGI (CCRF-CEM leukemia): > 100 µM; TGI (SK-MEL-5 melanoma): > 100 µM; TGI (OVCAR-8 ovarian): > 100 µM; TGI (OVCAR-4 ovarian): > 100 µM; TGI (HOP-92 NSCLC): > 100 µM; TGI (RPMI-8226 leukemia): > 100 µM; TGI (SR leukemia): > 100 µM; TGI (EKVX NSCLC): > 100 µM
CC(C)(C)c1ccc2c(c1)CNCCNCCNCc1cc(C(C)(C)C)ccc1OCC1(CO2)COc2ccc(C(C)(C)C)cc2CNCCNCCNCc2cc(C(C)(C)C)ccc2OC1,–,–,–,–,3.17,–,–,1.83,–,1.97,1.33,–,–,–,–,–,3.74,–,2.83,0.562,TGI (DU-145 prostate): 2.83 µM; TGI (MCF7 breast): 0.379 µM
